Like-named read-outs stand apart in the source and are kept apart here.
Experiments:
APN = details: cited from earlier work; for Ki: α-Keto amides
LAP = LAP (Homo sapiens, UniProt P28838); details: α-Aminoboric acids; cited from earlier work
Argininyl AP = Argininyl AP (Homo sapiens, UniProt Q9H4A4); details: α-Keto amides, cited from earlier work
Cytosolic AP = details: α-Keto amides; cited from earlier work
[1] = system: human regulatory T-cells (CD4+CD25+); assay: Co-culture of human effector cells (CD4+CD25-) and regulatory T-cells, proliferation by tritium thymidine inclusion; assay type: cell-based; details: for effect of the inhibitor on suppressive capacity of the Treg cells: 120 hours co-culture, anti-CD3
Text: Mononuclear cells were obtained from the peripheral blood of healthy donors by means of density-gradient centrifugation. The isolation of regulatory T-cells occurred by means of a two-stage magnetic separation:
In a first step CD4^+ T-cells were recovered by depletion of all CD4-negative cells [CD4 separation kit, Miltenyi Biotech, Bergisch-Gladbach, Germany]. The purity achieved regularly amounted to >95% CD4^+ T-cells.
In a second step CD4^+CD25^+ regulatory T-cells were in turn isolated from this population by magnetic column separation using CD25 marking [anti-CD25 MicroBeads, Miltenyi Biotech].
The CD4^+CD25^− fraction served as effector cell control.
The functional capacity of the regulatory T-cells was tested in a special co-culture. For this, 20 000 effector cells (CD4^+CD25^−) and regulatory T-cells (CD4^+CD25^+) in total were respectively cultivated in different quantitative ratios to one another over a period of 120 hours in microtest plates. A solid phase-bound anti-CD3 antibody [UCHT1, 0.25 μg/well] was used as activator of the T-cell stimulation.
The degree of proliferation of the cultivated cells was analysed on the basis of the DNA synthesis rate by means of tritium thymidine inclusion over 24 hours [n=5].
The degree of proliferation of the cultivated cells was analysed on the basis of the DNA synthesis rate by means of tritium thymidine inclusion over 24 hours [n=3].
Mononuclear cells were obtained from the peripheral blood of healthy donors by means of density-gradient centrifugation. A T-cell separation followed using nylon pad adherence.
The isolation of regulatory T-cells occurred by means of a two-stage magnetic separation:
The degree of proliferation of the cultivated cells was analysed on the basis of the DNA synthesis rate by means of tritium thymidine inclusion over 24 hours [n=10].

colitis in Balb-c mice = assay: DSS colitis model in mice, disease activity index (DAI); assay type: in vivo; details: single intravenous application on day 3, phebestin 0.5 mg/kg or 1 million cells/animal, up to 48 hours after application
Text: Colitis was triggered in Balb-c mice by the oral application of 3% dextran sodium sulphate solution (DSS). The degree of severity of the illness was established on the basis of a disease activity index (DAI). This consisted of the daily documentation of body weight loss, stool consistency, rectal bleeding, food and water intake, and is defined in the publication “Bank, U., Heimburg, A., Helmuth, M., Stefin, S., Lendeckel, U., Reinhold, D., Faust, J., Fuchs, P., Sens, B., Neubert, K., Täger, M., Ansorge, S.; Triggering endogenous immunosuppressive mechanisms by combined targeting of dipeptidyl peptidase IV (DPIV/CD26) and aminopeptidase N (APN/CD13)—A novel approach for the treatment of inflammatory bowel disease; International Immunopharmacology 6: 1925-1934 (2006)”.
Regulatory T-cells from peripheral venous blood were recovered in parallel by means of density-gradient centrifugation and magnetic separation using CD25 Microbeads.
On day 3, either the aminopeptidase N inhibitor phebestin (0.5 mg/kgKG), untreated CD4^+CD25^+ Treg cells (1 million cells/animal) or activated CD4^+CD25^+ Treg cells (1 million cells/animal) were applied once intravenously.
The activation of the Treg cells occurred ex situ using the method according to the invention by incubating the Treg cells for 45 minutes in the presence of phebestin [500 μg/ml].

[2] = system: murine regulatory T-cells (CD4+CD25+); assay: Co-culture of murine effector cells (MNC-CD25-) and regulatory T-cells, proliferation by tritium thymidine inclusion; assay type: cell-based, mice; details: 1.0 μM, after 5 days of co-culture, anti-CD3/anti-CD28
Experimental: Mononuclear cells (MNC) were obtained from the peripheral blood of healthy mice by means of density-gradient centrifugation. The isolation of regulatory T-cells occurred using CD25 marking [anti-CD25 MicroBeads, Miltenyi Biotech]. The CD25^− MNC fraction served as effector cell control.
The functional capacity of the regulatory T-cells was tested in a special co-culture. For this, 20 000 effector cells (MNC-CD25^−) and regulatory T-cells (CD4^+CD25^+) in total were respectively cultivated in different quantitative ratios to one another over a period of 120 hours in microtest plates. The T-cell stimulation occurred by adding anti-CD3/anti-CD28 [1 μg/ml].
The degree of proliferation of the cultivated cells was analysed on the basis of the DNA synthesis rate by means of tritium thymidine inclusion over 24 hours [n=4].

[3] = β-Aminothiols table, read-out: IC50 (nM) APN
[4] = α-Aminoboric acids, read-out: IC50, μM (APN)
[5] = N-Phenylphthalimides and -homophthalimides, enzyme not given, alanyl-aminopeptidase, read-out: IC50

LAP, sequence (P28838 whole entry): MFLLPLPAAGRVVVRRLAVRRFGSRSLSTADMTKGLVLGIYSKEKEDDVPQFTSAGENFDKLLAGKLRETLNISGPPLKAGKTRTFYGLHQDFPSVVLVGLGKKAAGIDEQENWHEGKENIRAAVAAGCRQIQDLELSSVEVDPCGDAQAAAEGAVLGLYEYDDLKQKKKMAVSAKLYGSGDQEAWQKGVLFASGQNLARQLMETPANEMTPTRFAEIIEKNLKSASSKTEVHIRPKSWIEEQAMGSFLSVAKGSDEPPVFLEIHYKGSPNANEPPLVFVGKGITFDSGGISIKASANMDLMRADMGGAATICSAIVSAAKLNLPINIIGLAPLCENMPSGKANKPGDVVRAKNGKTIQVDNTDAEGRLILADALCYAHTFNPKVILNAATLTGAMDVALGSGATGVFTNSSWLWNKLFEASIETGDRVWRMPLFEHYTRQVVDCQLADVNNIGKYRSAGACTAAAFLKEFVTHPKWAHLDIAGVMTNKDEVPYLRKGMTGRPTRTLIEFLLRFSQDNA
Argininyl AP, sequence (Q9H4A4 whole entry): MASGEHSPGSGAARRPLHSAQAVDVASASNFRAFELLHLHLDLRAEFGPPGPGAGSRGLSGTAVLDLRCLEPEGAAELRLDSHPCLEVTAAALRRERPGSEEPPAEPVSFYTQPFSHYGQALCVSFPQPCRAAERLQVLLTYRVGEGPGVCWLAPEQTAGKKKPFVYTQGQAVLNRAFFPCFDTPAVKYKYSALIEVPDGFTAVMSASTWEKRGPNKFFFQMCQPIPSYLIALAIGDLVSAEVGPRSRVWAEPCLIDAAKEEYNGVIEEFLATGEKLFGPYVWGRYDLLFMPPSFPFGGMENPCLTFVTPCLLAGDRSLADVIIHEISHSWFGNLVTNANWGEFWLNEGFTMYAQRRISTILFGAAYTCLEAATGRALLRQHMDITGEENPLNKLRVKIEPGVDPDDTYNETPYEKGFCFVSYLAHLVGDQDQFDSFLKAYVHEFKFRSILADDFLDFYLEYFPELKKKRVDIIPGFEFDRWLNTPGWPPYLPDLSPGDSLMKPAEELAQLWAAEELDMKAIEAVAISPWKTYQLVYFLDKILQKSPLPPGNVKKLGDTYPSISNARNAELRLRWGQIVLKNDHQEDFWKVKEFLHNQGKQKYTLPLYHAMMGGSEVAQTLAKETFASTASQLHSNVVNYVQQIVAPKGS

In the case of NC(CS)COCc1ccccc1 (centres unmarked), the IC50 (APN; [3]) is given as 56 nM.
In the case of NC(CS)CC1CCCCC1 (centres unmarked), the IC50 (APN; [3]) is given as 45 nM.
For CC(C)(C)SCC(N)CS (centres unmarked), the IC50 (APN; [3]) is given as 40 nM.
For NC(CS)c1ccccc1 (centres unmarked), the IC50 (APN; [3]) is given as 25 nM.
For NC(CS)Cc1ccc(O)cc1 (centres unmarked), the IC50 (APN; [3]) is given as 45 nM.
For CCOC(=O)[C@H](N)CS, the IC50 (APN; [3]) is given as 350 nM.
For CC(C)C[C@@H](N)B(O)O, the IC50 (LAP) is listed as 0.25 µM.
In the case of C[C@@H](N)B1OC(C)(C)C(C)(C)O1, the IC50 (APN; [4]) is listed as 70 nM and the IC50 (LAP) is listed as 0.35 µM.
For CC(C)C[C@@H](N)B1OC(C)(C)C(C)(C)O1, the IC50 (APN; [4]) is given as 74 nM and the IC50 (LAP) is given as 0.25 µM.
In the case of CC1(C)OB([C@H](N)Cc2ccccc2)OC1(C)C, the IC50 (APN; [4]) is listed as 50 nM and the IC50 (LAP) is listed as 0.2 µM.
For N[C@H](Cc1ccccc1)B1OCCCO1, the IC50 (LAP) is given as 0.2 µM.
In the case of CSc1ccccc1N1C(=O)Cc2ccccc2C1=O, the IC50 (APN; [5]) is given as 900 nM.
In the case of CC(C)c1cccc(C(C)C)c1N1C(=O)Cc2c(N)cccc2C1=O, the IC50 (APN; [5]) is listed as 5400 nM.
In the case of CC(C)c1cccc(C(C)C)c1N1C(=O)Cc2c(O)cccc2C1=O, the IC50 (APN; [5]) is given as 4300 nM.
In the case of CC(C)CCNC(=O)C(=O)[C@@H](N)Cc1ccccc1, the Ki (Argininyl AP) is given as 1.5 µM, the Ki (Cytosolic AP) is given as 1 µM and the Ki (APN) is given as 2.5 µM.
In the case of CC(C)CCNC(=O)[C@@H](O)[C@H](N)Cc1ccccc1, the Ki (APN) is given as 20 µM.
In the case of CC(C)CCNC(=O)[C@@H](O)[C@H](N)CC(C)C, the Ki (Argininyl AP) is listed as over 300 µM and the Ki (APN) is listed as 24 µM.
For CC(C)CCNC(=O)C(=O)C(N)CC(C)C (racemic), the Ki (Argininyl AP; (R) isomer) is given as 6.5 µM, the Ki (Argininyl AP; (S) isomer) is given as 3.2 µM and the Ki (APN; (R) isomer) is given as 18.6 µM. The Ki (APN; (S) isomer) was 10.5 µM.
In the case of CCc1cccc(CC)c1-n1c(=O)[nH]c2ccccc2c1=O [PAQ22, 3-(2,6-diethylphenyl-)quinazoline-2,4(1H3H)-dione], the “induction of suppressive capacity of the regulatory T-cells” value ([1]; 10% and 5% Treg cell components, after 5 days of co-culture) is reported as “induced the suppressive capacity”.
With CCCCC[C@H](CC(=O)NO)C(=O)N[C@H](C(=O)N1CCC[C@H]1CO)C(C)C [actinonin] the “effect of the inhibitor on suppressive capacity of the Treg cells” value ([1]; physiologically relevant range of 10:1 effector cells to Treg cells (10% Treg)) was “significant intensification of the suppressive capacity” and the “effect of the inhibitor on suppressive capacity of the Treg cells” value ([1]; ratio of 1:1 of effector cells to Treg cells (50% Treg)) was “no reliable effect”.
In the case of CC(C)[C@H](NC(=O)[C@@H](O)[C@H](N)Cc1ccccc1)C(=O)N[C@@H](Cc1ccccc1)C(=O)O [phebestin], the “activity of the disease (disease activity index) / clinical symptoms” value (colitis in Balb-c mice) is reported as “no effect” and the “induction of suppressive capacity of the regulatory T-cells” value [2] is reported as “induced the suppressive capacity of the regulatory T-cells to a significant degree”.

— US20110117069A1, “METHOD FOR ACTIVATING REGULATORY T-CELLS” (IMTM GMBH, priority 2007, published 2011)
